{"source": "patent US6605305B2", "about": "“Plant drug for treatment of liver disease” (priority 2001, dated 2003)", "test_system": "DNA synthesis of liver", "assay": "Liver DNA synthesis ([^3H] thymidine incorporation) in CCl4-intoxicated mice", "type": "in vivo", "conditions": "SCS 50 mg/kg intragastrically daily for 4 days", "description": "Female Balb/c mice (22-24 g) were maintained at 20° C. and a 12 hours light/dark cycle. The food and water allowed adliboti. Mice were randomly assigned to groups of 20 individuals. Twenty-four hours after the last dosing, animals were administered an oral dose of CCl4 (1%, v/v, in olive oil) at 1.0 mmol/kg. In treatment group, mice were treated intragastrically with SCS at daily dose of 50 mg/kg for 4 days. Control animals were given the vehicle (i.e. olive oil, 1 mL/kg). Twenty-four hours after intoxication, heparinized blood samples were drawn from ether-anesthetized mice by cardiac puncture, and the animals were killed by cardiac excision thereafter.\n[^3H] thymidine (10 μCi/100 g body weight) was injected intraperitoneally and mice were killed 2 hours after the infection. Mice were killed at 12, 24, 36, 48, 72 and 120 hours and their livers were removed.\nDNA synthesis was determined by the incorporation of [^3H] thymidice into the acid-insoluble fraction. The liver was homogenized in 4 volumes of distilled water. Two ml of homogenate were added to an equal volume of 10% trichloroacetic acid (TCA) solution and centrifuged at 900 g for 10 minutes. The resultant pellet was washed with 5% TCA twice and suspended again in 2 ml of 5% TCA solution. The suspension was incubated at 90° C. for 20 minutes and centrifuged at 900 g for 10 minutes. One ml of the supernatant was put into a scintillation vial and 10 ml of a toluene-based scintillation fluid containing DPO (0.4%), POPOP (0.01%), and Triton X-100 (30%) as added. The radioactivity was counted in a Packard Tri-Carb Liquid scintillation counter. The DNA content of the supernatant was assayed by the method of using calf thymus DNA as the standard."}
{"smiles": "COc1cc2c(c(OC)c1OC)-c1c(cc(OC)c(OC)c1OC)C[C@](C)(O)[C@@H](C)C2", "note": "[SCS, Schisandrin]", "values": [{"measurement": "DNA synthesis (cpm/mg DNA)", "setting": "12 h", "result": "6520 ± 678", "unit": "cpm/mg DNA"}, {"measurement": "DNA synthesis (cpm/mg DNA)", "setting": "24 h", "result": "12305 ± 1405", "unit": "cpm/mg DNA"}, {"measurement": "DNA synthesis (cpm/mg DNA)", "setting": "48 h", "result": "8910 ± 920", "unit": "cpm/mg DNA"}, {"measurement": "DNA synthesis (cpm/mg DNA)", "setting": "72 h", "result": "9300 ± 940", "unit": "cpm/mg DNA"}]}
